This is an account of results in PubChem BioAssay AID330 (DTP/NCI, 2004).

In the test the test system is P388 leukemia ip, CD2F1 mice, survival T/C. Put plainly: NCI In Vivo Anticancer Drug Screen. Data for tumor model P388 Leukemia (intraperitoneal) in CD2F1 (CDF1) mice. Particulars: endpoint: median survival time, higher = longer survival. The essentials: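 Mice carrying the transplanted tumor received test compound or vehicle. Survival was recorded in each group, and the value is the treated-group measurement divided by that of the vehicle-treated control group.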

The mark [1] stands for this setting: dose: 6.25 mg/kg/injection, schedule: Q01DX009 (ip), vehicle: saline.
Where [2] appears, read: dose: 12.5 mg/kg/injection, schedule: Q04DX002 (ip), vehicle: saline with Tween-80.
Setting [3] is: dose: 25.0 mg/kg/injection, schedule: Q04DX002 (ip), vehicle: saline with Tween-80.
Where [4] appears, read: dose: 50.0 mg/kg/injection, schedule: Q01DX009 (ip), vehicle: saline.
Where [5] appears, read: dose: 100.0 mg/kg/injection, schedule: Q01DX009 (ip), vehicle: saline.
Where [6] appears, read: dose: 200.0 mg/kg/injection, schedule: Q01DX009 (ip), vehicle: saline.
Setting [7] is: dose: 50.0 mg/kg/injection, schedule: Q01DX005 (ip), vehicle: saline with Tween-80.
Setting [8] is: dose: 100.0 mg/kg/injection, schedule: Q01DX005 (ip), vehicle: saline with Tween-80.
Setting [9] is: dose: 200.0 mg/kg/injection, schedule: Q01DX005 (ip), vehicle: saline with Tween-80.

“And” between values parts separate entries of the source, which are not always exact repeats. Identical values can stand only once. Inconclusive results and toxic doses are left out.

As to `OC1COCC2N3C(=NN12)Sc1ccccc13` (centres undefined), the T/C is, setting by setting: (dose: 100.0 mg/kg/injection, schedule: Q04DX003 (ip), vehicle: saline) 105 % of control; (dose: 200.0 mg/kg/injection, schedule: Q04DX003 (ip), vehicle: saline) 107 % of control; (dose: 400.0 mg/kg/injection, schedule: Q04DX003 (ip), vehicle: saline) 98 % of control.

As to `O=C(N/N=C/c1cc(Br)ccc1[O-])c1cccnc1.O=C(N/N=C/c1cc(Br)ccc1[O-])c1cccnc1.[Zn+2]`, the T/C is 98 % of control (dose: 100.0 mg/kg/injection, schedule: Q01DX001 (ip), vehicle: Klucel (hydroxypropylcellulose) (HPC)); 93 % of control (dose: 200.0 mg/kg/injection, schedule: Q01DX001 (ip), vehicle: Klucel (hydroxypropylcellulose) (HPC)); 93 % of control (dose: 400.0 mg/kg/injection, schedule: Q01DX001 (ip), vehicle: Klucel (hydroxypropylcellulose) (HPC)).

As to `CCC1=[N+](C)C(C)(C)CC(C)O1` (centres undefined), the T/C by setting is: (dose: 12.5 mg/kg/injection, schedule: Q04DX003 (ip), vehicle: saline with Tween-80) 100 % of control; (dose: 25.0 mg/kg/injection, schedule: Q04DX003 (ip), vehicle: saline with Tween-80) 100 % of control; (dose: 50.0 mg/kg/injection, schedule: Q04DX003 (ip), vehicle: saline with Tween-80) 95 % of control.

Regarding `COc1cc(OC)c(NC(=O)Oc2cc(C)c(I)cc2C)cc1Cl`, the T/C runs as follows: under setting [1], 118 % of control; (dose: 12.5 mg/kg/injection, schedule: Q01DX009 (ip), vehicle: saline) 96 % of control; (dose: 25.0 mg/kg/injection, schedule: Q01DX009 (ip), vehicle: saline) 93 % of control; (dose: 100.0 mg/kg/injection, schedule: Q01DX009 (ip), vehicle: saline + alcohol) 98 % of control; (dose: 200.0 mg/kg/injection, schedule: Q01DX009 (ip), vehicle: saline + alcohol) 95 % of control.

Regarding `CN=C(N)NN=C(c1ccc(Cl)cc1)c1ccc(Cl)cc1`, the T/C (dose: 6.25 mg/kg/injection, schedule: Q04DX002 (ip), vehicle: saline with Tween-80) was 101 % of control; the T/C under setting [2] is 102 % of control; the T/C under setting [3] was 158 % of control.

Consider `COc1ccc(C(OC(C)(C)C)c2cc(C(C)(C)C)cc(C(C)(C)C)c2O)cc1` (centres undefined), for which the T/C is, setting by setting: (dose: 50.0 mg/kg/injection, schedule: Q01DX005 (ip), vehicle: distilled water + alcohol) 101 % of control; (dose: 100.0 mg/kg/injection, schedule: Q01DX005 (ip), vehicle: distilled water + alcohol) 104 % of control; (dose: 200.0 mg/kg/injection, schedule: Q01DX005 (ip), vehicle: distilled water + alcohol) 97 % of control.

For the molecule `Cn1c(=O)c2c(ncn2CCSc2ncnc3nc[nH]c23)n(C)c1=O`, the T/C under setting [4] is 97 % of control, the T/C under setting [5] was 105 % of control and the T/C under setting [6] is 114 % of control.

For the molecule `Cc1cccc(NNC(=S)Nc2ccccc2)c1`, the T/C runs as follows: (dose: 100.0 mg/kg/injection, schedule: Q04DX003 (ip), vehicle: saline with Tween-80) 95 % of control; (dose: 200.0 mg/kg/injection, schedule: Q04DX003 (ip), vehicle: saline with Tween-80) 100 % of control; (dose: 400.0 mg/kg/injection, schedule: Q04DX003 (ip), vehicle: saline with Tween-80) 90 % of control.

With `N=C(N)c1ccc2oc(CCc3cc4ccc(C(=N)N)cc4[nH]3)cc2c1`, the T/C reads like this: (dose: 3.12 mg/kg/injection, schedule: Q04DX003 (ip), vehicle: suspension in saline) 100 % of control; (dose: 6.25 mg/kg/injection, schedule: Q04DX003 (ip), vehicle: suspension in saline) 113 % of control; (dose: 12.5 mg/kg/injection, schedule: Q04DX003 (ip), vehicle: suspension in saline) 110 % of control.

With `O=C(CBr)CC(O)(C(F)(F)F)C(F)(F)F`, the T/C (dose: 3.0 mg/kg/injection, schedule: Q04DX003 (ip), vehicle: saline) was 100 % of control; the T/C (dose: 6.0 mg/kg/injection, schedule: Q04DX003 (ip), vehicle: saline) is 100 % of control; the T/C (dose: 12.0 mg/kg/injection, schedule: Q04DX003 (ip), vehicle: saline) is 91 % of control.

Take `Nc1ncnc2nc(-c3ccc(C[P+](c4ccccc4)(c4ccccc4)c4ccccc4)cc3)[nH]c12`: the T/C by setting is: (dose: 60.0 mg/kg/injection, schedule: Q01DX005 (ip), vehicle: saline with Tween-80) 95 % of control; (dose: 120.0 mg/kg/injection, schedule: Q01DX005 (ip), vehicle: saline with Tween-80) 95 % of control; (dose: 240.0 mg/kg/injection, schedule: Q01DX005 (ip), vehicle: saline with Tween-80) 95 % of control.

Regarding `COc1ccc(-c2csc(=[N+]3CCCCC3)s2)cc1`, the T/C (dose: 3.13 mg/kg/injection, schedule: Q01DX009 (ip), vehicle: water) was 100 % of control; the T/C (dose: 6.25 mg/kg/injection, schedule: Q01DX009 (ip), vehicle: water) is 105 % of control and 110 % of control.

On to `NS(=O)(=O)c1ccc(N=Nc2c(O)n(-c3ccccc3)n(-c3ccccc3)c2=O)cc1`, for which the T/C was 107 % of control (dose: 100.0 mg/kg/injection, schedule: Q04DX003 (ip), vehicle: Klucel (hydroxypropylcellulose) (HPC)); 102 % of control (dose: 200.0 mg/kg/injection, schedule: Q04DX003 (ip), vehicle: Klucel (hydroxypropylcellulose) (HPC)); 102 % of control (dose: 400.0 mg/kg/injection, schedule: Q04DX003 (ip), vehicle: Klucel (hydroxypropylcellulose) (HPC)).

Regarding `O=NN(CCCl)C(=O)Nc1ccc(Br)cc1`, the T/C runs as follows: under setting [1], 122 % of control; (dose: 12.5 mg/kg/injection, schedule: Q01DX009 (ip), vehicle: suspension in saline) 150 % of control; (dose: 25.0 mg/kg/injection, schedule: Q01DX009 (ip), vehicle: suspension in saline) 167 % of control; under setting [4], 122 % of control; (dose: 50.0 mg/kg/injection, schedule: Q01DX009 (ip), vehicle: suspension in saline) 167 % of control.

On to `CCOC(=O)N=C=S`, for which the T/C (dose: 50.0 mg/kg/injection, schedule: Q01DX009 (ip), vehicle: saline with Tween-80) is 108 % of control and the T/C (dose: 100.0 mg/kg/injection, schedule: Q01DX009 (ip), vehicle: saline with Tween-80) was 108 % of control.

On to `CCOC(=O)C1C(C(=O)c2ccc(Br)cc2)C12C(=O)N(C)c1ccccc12` (centres undefined), for which the T/C by setting is: under setting [2], 99 % of control; under setting [3], 92 % of control; (dose: 50.0 mg/kg/injection, schedule: Q04DX002 (ip), vehicle: saline with Tween-80) 93 % of control.

Consider `CNC(C)C(O)c1ccc(O)cc1` (centres undefined), for which the T/C is, setting by setting: under setting [4], 102 % of control and 92 % of control; under setting [5], 102 % of control and 105 % of control; under setting [6], 102 % of control and 108 % of control; (dose: 400.0 mg/kg/injection, schedule: Q01DX009 (ip), vehicle: saline) 102 % of control and 98 % of control.

With `COc1cccc2c1C(=O)c1c(O)c3c(c(O)c1C2=O)CC(O)(C(=O)CO)CC3OC1CC(NCC2(O)OCC(O)C(O)C2O)C(O)C(C)O1` (centres undefined), the T/C (dose: 14.5 mg/kg/injection, schedule: Q04DX003 (ip), vehicle: water) is 179 % of control; the T/C (dose: 29.0 mg/kg/injection, schedule: Q04DX003 (ip), vehicle: water) is 239 % of control; the T/C (dose: 58.0 mg/kg/injection, schedule: Q04DX003 (ip), vehicle: water) was 116 % of control.

Take `CC(=O)Nc1cccc2c1CCCC2`: the T/C was 100 % of control under setting [7], 102 % of control under setting [8] and 102 % of control under setting [9].

For the molecule `c1ccc2sc(CN(Cc3nc4ccccc4s3)Cc3nc4ccccc4s3)nc2c1`, the T/C was 103 % of control under setting [7], 101 % of control under setting [8] and 100 % of control under setting [9].

Turning to `CCOC(=O)c1ccnc2ccc(OCCN(CC)CC)cc12`, the T/C reads like this: (dose: 50.0 mg/kg/injection, schedule: Q01DX005 (ip), vehicle: saline) 96 % of control; (dose: 100.0 mg/kg/injection, schedule: Q01DX005 (ip), vehicle: saline) 100 % of control; (dose: 200.0 mg/kg/injection, schedule: Q01DX005 (ip), vehicle: saline) 101 % of control.

For `C#Cc1cccc(N=Cc2cc([N+](=O)[O-])ccc2O)c1`, the T/C by setting is: under setting [7], 100 % of control; under setting [8], 99 % of control; under setting [9], 93 % of control.
